The values that follow come from paper PMC7261474 (Journal of medicinal chemistry, 2020).

SMILES strings stand for the structures. Values joined by “and” are separate entries in the source; they are usually repeats but may differ in a detail not shown here. Equal entries are not always repeated. Where two headings read alike, the source gives them in different places. Where a SMILES comes first, the peptide text is derived from it. [ ]: non-standard residue; d: D form. The star is where a group is joined. hPhe = N[CH](CCc1ccccc1)C(=O)O; 4Pal = N[CH](Cc1ccncc1)C(=O)O; AMC = Cc1cc(=O)oc2cc(N*)ccc12; Cbz = O=C(OCc1ccccc1)* Some results are limits rather than exact numbers.

The target of data set [1] is T1, cruzain (Trypanosoma cruzi, UniProt P25779). In words: Cruzain inhibition/inactivation, time courses with Cbz-Phe-Arg-AMC.
T1 sequence (P25779 123-467): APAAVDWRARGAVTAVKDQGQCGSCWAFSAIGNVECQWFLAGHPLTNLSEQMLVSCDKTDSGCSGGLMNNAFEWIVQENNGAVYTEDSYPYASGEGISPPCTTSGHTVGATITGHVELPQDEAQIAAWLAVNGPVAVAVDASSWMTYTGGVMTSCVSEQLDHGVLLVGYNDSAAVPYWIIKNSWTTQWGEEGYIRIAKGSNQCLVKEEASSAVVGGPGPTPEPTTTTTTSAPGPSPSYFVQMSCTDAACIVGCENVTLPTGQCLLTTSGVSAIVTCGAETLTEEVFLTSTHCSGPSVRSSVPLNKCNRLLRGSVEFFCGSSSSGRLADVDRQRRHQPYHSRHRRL
The nature of data set [2]: Covalent adduct formation with glutathione. To be noted: for reaction with GSH (adduct formation): 90 min incubation, 2:1 or 10:1 molar ratio GSH/inhibitor; for rate of formation of GSH adduct: 2:1 molar ratio GSH/inhibitor; for Keq of GSH adduct (apparent equilibrium): 2:1 molar ratio, equilibrium in 90 min. Type of data set: physicochemical.
In data set [3] the test system is T. cruzi (epimastigote forms, strain Y, ATCC 50832GFP). In words: Growth inhibition of T. cruzi epimastigotes in axenic culture. Format: cell-based, Trypanosoma cruzi. To be noted: 5 days.
Data set [4] has as its system Primary human dermal fibroblast (HDF) cells. In words: Human cell toxicity. Type of data set: cell-based. To be noted: CC50 in human dermal fibroblasts / EC50 in infected cardiomyoblasts.
Data set [5] concerns the target T1, cruzain. The data set can be described thus: Cruzain-catalysed hydrolysis of fluorogenic dipeptide-AMC substrates. Type of data set: biochemical. The note with it: for Km / kcat: pH 7.5, 25 °C, 10% DMSO (v/v); for kcat rel: relative to S1 Cbz-Phe-Arg-AMC, S6 and S12 from 2% DMSO data.
The target of data set [6] is human cathepsin L (Homo sapiens, UniProt P07711). The data set can be described thus: Human cathepsin L assay with Cbz-Phe-Arg-AMC. Type of data set: biochemical. The note with it: pH 5.5, 25 °C, 10% DMSO.
human cathepsin L, sequence (P07711 114-333): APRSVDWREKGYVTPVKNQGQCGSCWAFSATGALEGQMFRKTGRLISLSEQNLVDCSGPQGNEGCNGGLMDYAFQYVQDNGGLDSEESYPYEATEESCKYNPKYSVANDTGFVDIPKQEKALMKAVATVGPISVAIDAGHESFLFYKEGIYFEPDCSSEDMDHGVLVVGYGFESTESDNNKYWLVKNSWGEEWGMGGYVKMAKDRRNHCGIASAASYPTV
Data set [7] concerns the target human cathepsin B (Homo sapiens, UniProt P07858). The data set can be described thus: Human cathepsin B assay with Cbz-Phe-Arg-AMC. The note with it: pH 5.5, 25 °C, 10% DMSO. Format: biochemical.
Data set [8] addresses human cathepsin S (Homo sapiens, UniProt P25774). In words: Human cathepsin S assay with Cbz-Phe-Arg-AMC. Format: biochemical. To be noted: pH 5.5, 25 °C, 10% DMSO.
Data set [9] concerns the target T1, cruzain. To be noted: 2% DMSO (v/v); ref [40]; cited from earlier work.
Data set [10] has as its system T. cruzi strain Ca-I/72 in C2C12 mouse cardiomyoblasts. To be noted: ref [55]; cited from earlier work.

human cathepsin S, sequence (P25774 115-331): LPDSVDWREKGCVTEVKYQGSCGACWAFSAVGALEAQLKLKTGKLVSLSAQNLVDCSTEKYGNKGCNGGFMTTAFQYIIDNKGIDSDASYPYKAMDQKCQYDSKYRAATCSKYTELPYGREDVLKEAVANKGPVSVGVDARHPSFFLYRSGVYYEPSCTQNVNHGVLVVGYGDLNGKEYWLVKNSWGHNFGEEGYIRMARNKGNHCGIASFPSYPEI

`O=C(N[C@@H](Cc1ccccc1)C(=O)NC(CCc1ncccn1)Cc1ccccc1)OCc1ccccc1` (stereo in doubt) [Compound 27, Benzyl ((S)-1-Oxo-3-phenyl-1-(((S)-1-phenyl-4-(pyrimidin-2-yl)-butan-2-yl)amino)propan-2-yl)carbamate]: the Ki in data set [1] was found to be 22 µM.
Take `O=C(N[C@@H](Cc1ccccc1)C(=O)N[C@H](/C=C/c1ncccn1)Cc1ccccc1)OCc1ccccc1` [Compound 7, Benzyl ((S)-1-Oxo-3-phenyl-1-(((S,E)-1-phenyl-4-(pyrimidin-2-yl)-but-3-en-2-yl)amino)propan-2-yl)carbamate]: the “reaction with GSH (adduct formation)” value in [2] (pH 8.0) is “no adduct was observed”.
Regarding `O=C(N[C@@H](Cc1ccccc1)C(=O)N[C@H](/C=C/c1ccccn1)Cc1ccccc1)OCc1ccccc1` [Compound 11, Benzyl ((S)-1-Oxo-3-phenyl-1-(((S,E)-1-phenyl-4-(pyridin-2-yl)but-3-en-2-yl)amino)propan-2-yl)carbamate], the “T. cruzi axenic culture EC50” value in data set [3] is “poorly effective”. For the same molecule, in [2] (pH 8.0), the “reaction with GSH (adduct formation)” value is on record as “no adduct was observed”.
With `C[n+]1ccccc1/C=C/[C@H](Cc1ccccc1)NC(=O)[C@H](Cc1ccccc1)NC(=O)OCc1ccccc1.[I-]` [Compound 12, 2-((S,E)-3-((S)-2-(((Benzyloxy)carbonyl)amino)-3-phenylpropanamido)-4-phenylbut-1-en-1-yl)-1-methylpyridin-1-ium Iodide], the “selectivity index CC50/EC50” value in data set [4] was greater than 10. Also, in [2] (pH 8.0), the “rate of formation of GSH adduct” value turned out to be 37 M⁻¹ s⁻¹ and the “Keq of GSH adduct (apparent equilibrium)” value was found to be 7400 M⁻¹. The “conversion to GSH adduct” value in [2] (20 min, 10:1 molar ratio of GSH to compound) was 97%.
As for `O=C(N[C@@H](Cc1ccccc1)C(=O)N[C@H](/C=C/c1ccccn1)CCc1ccccc1)OCc1ccccc1` [Compound 13, Benzyl ((S)-1-Oxo-3-phenyl-1-(((S,E)-5-phenyl-1-(pyridin-2-yl)pent-1-en-3-yl)amino)propan-2-yl)carbamate], the “T. cruzi axenic culture EC50” value in data set [3] is on record as “poorly effective”.
Take `C[n+]1ccccc1/C=C/[C@H](CCc1ccccc1)NC(=O)[C@H](Cc1ccccc1)NC(=O)OCc1ccccc1` [Compound 15, 2-((S,E)-3-((S)-2-(((Benzyloxy)carbonyl)amino)-3-phenylpropanamido)-5-phenylpent-1-en-1-yl)-1-methylpyridin-1-ium]: the “selectivity index CC50/EC50” value in data set [4] is on record as greater than 20. In [2] (pH 8.0), the “rate of formation of GSH adduct” value came out at 54 M⁻¹ s⁻¹ and the “Keq of GSH adduct (apparent equilibrium)” value is 2400 M⁻¹. In data set [1], this molecule had a Ki of 0.6 ± 0.2 µM. Further, in data set [1] (pH 7.5, global fitting to eq 6), the “k3 (eq 6)” value came out at 0.0012 ± 0.0004 s⁻¹ and the “k4 (eq 6)” value is 0.00019 ± 0.00005 s⁻¹.
In the case of `O=C(N[C@@H](Cc1ccccc1)C(=O)N[C@H](/C=C/c1cc(C(F)(F)F)ccn1)CCc1ccccc1)OCc1ccccc1` [Compound 17, Benzyl ((S)-1-Oxo-3-phenyl-1-(((S,E)-5-phenyl-1-(4-(trifluoromethyl)pyridin-2-yl)pent-1-en-3-yl)amino)propan-2-yl)-carbamate], in data set [2] (pH 8.0), the “reaction with GSH (adduct formation)” value was “no adduct was observed”.
Regarding `O=C(N[C@@H](Cc1ccccc1)C(=O)N[C@H](/C=C/c1ncco1)Cc1ccccc1)OCc1ccccc1` [Compound 24, Benzyl ((S)-1-(((S,E)-4-(Oxazol-2-yl)-1-phenylbut-3-en-2-yl)-amino)-1-oxo-3-phenylpropan-2-yl)carbamate], the “T. cruzi axenic culture EC50” value in [3] is recorded as “poorly effective”.
On to `O=C(N[C@@H](Cc1ccccc1)C(=O)N[C@H](/C=C/c1nccs1)Cc1ccccc1)OCc1ccccc1` [Compound 25, Benzyl ((S)-1-Oxo-3-phenyl-1-(((S,E)-1-phenyl-4-(thiazol-2-yl)-but-3-en-2-yl)amino)propan-2-yl)carbamate], for which the “reaction with GSH (adduct formation)” value in data set [2] (pH 8.0) is “no adduct was observed”.
As to `C[n+]1ccsc1/C=C/[C@H](Cc1ccccc1)NC(=O)[C@H](Cc1ccccc1)NC(=O)OCc1ccccc1.[I-]` [Compound 26, 2-((S,E)-3-((S)-2-(((Benzyloxy)carbonyl)amino)-3-phenylpropanamido)-4-phenylbut-1-en-1-yl)-3-methylthiazol-3-ium Iodide], in data set [2] (pH 8.0), the “rate of formation of GSH adduct” value stood at 15 M⁻¹ s⁻¹ and the “Keq of GSH adduct (apparent equilibrium)” value amounted to 930 M⁻¹.
For the molecule `CN1CCN(C(=O)N[C@@H](Cc2ccccc2)C(=O)N[C@H](/C=C/S(=O)(=O)c2ccccc2)CCc2ccccc2)CC1` [K11777, reference compound], in [2] (0.5 mM compound, 1 mM GSH, pH 8.0), the “rate of glutathione adduct formation k” value worked out at 0.00028 s⁻¹.
Turning to `Cc1cc(=O)oc2cc(NC(=O)[C@H](CCCN=C(N)N)NC(=O)[C@H](Cc3ccccc3)NC(=O)OCc3ccccc3)ccc12` [S1, Cbz-Phe-Arg-AMC, reference compound] (Cbz-Phe-Arg-{AMC}), in [5], the Km was 0.89 ± 0.09 µM, the kcat came to 9.6 ± 0.2 s⁻¹ and the kcat rel came out at 1.00. Also, the “Michaelis constant, cathepsin L” value in [6] came to 2.9 µM. For the same molecule, the “Michaelis constant, cathepsin B” value in data set [7] was determined as 150 µM. Also, in data set [8], the “Michaelis constant, cathepsin S” value came out at 60 µM.
For `Cc1cc(=O)oc2cc(NC(=O)[C@H](CCc3ccccc3)NC(=O)[C@H](Cc3ccccc3)NC(=O)OCc3ccccc3)ccc12` [S2, Cbz-Phe-hPhe-AMC] (Cbz-Phe-[hPhe]-{AMC}), in data set [5], the Km was 0.26 ± 0.06 µM, the kcat was 2.0 ± 0.2 s⁻¹ and the kcat rel stood at 0.21.
For the molecule `Cc1cc(=O)oc2cc(NC(=O)C(CCc3ccccc3)NC(=O)C(CC(C)C)NC(=O)OCc3ccccc3)ccc12` (stereo not drawn) [S3, Cbz-Leu-hPhe-AMC] (Cbz-Leu-[hPhe]-{AMC}; configuration not given here), in [5], the Km was determined as 0.8 ± 0.2 µM and the kcat was determined as 3.0 ± 0.2 s⁻¹.
For `Cc1cc(=O)oc2cc(NC(=O)[C@H](CCCN=C(N)N)NC(=O)[C@H](CC(C)C)NC(=O)OCc3ccccc3)ccc12` [S4, Cbz-Leu-Arg-AMC], in [5], the Km stood at 2.2 ± 0.3 µM, the kcat is 8.4 ± 0.4 s⁻¹ and the kcat rel was 0.88.
For `Cc1cc(=O)oc2cc(NC(=O)C(Cc3ccncc3)NC(=O)C(Cc3ccccc3)NC(=O)OCc3ccccc3)ccc12` (stereo not drawn) [S5, Cbz-Phe-(4-Pyr)Ala-AMC] (Cbz-Phe-[4Pal]-{AMC}; configuration not given here), in data set [5], the Km came out at 3.7 ± 0.5 µM, the kcat turned out to be 7.5 ± 0.5 s⁻¹ and the kcat rel came out at 0.76.
With `Cc1cc(=O)oc2cc(NC(=O)[C@H](CCCN=C(N)N)NC(=O)[C@H](CCCN=C(N)N)NC(=O)OCc3ccccc3)ccc12` [S6, Cbz-Arg-Arg-AMC] (Cbz-Arg-Arg-{AMC}), the kcat rel in [5] is on record as 0.75. In [9], the Km was 3.7 ± 0.4 µM and the kcat is 7.2 ± 0.1 s⁻¹.
Take `Cc1cc(=O)oc2cc(NC(=O)C(CCc3ccccc3)NC(=O)C(Cc3ccccc3)NC(=O)N3CCN(C)CC3)ccc12` (stereo not drawn) [S7, NMePip-Phe-hPhe-AMC]: in data set [5], the Km came out at 3.1 ± 0.3 µM, the kcat came to 4.0 ± 0.1 s⁻¹ and the kcat rel came to 0.42.
Turning to `Cc1cc(=O)oc2cc(NC(=O)[C@H](CCc3ccccc3)NC(=O)[C@H](Cc3ccncc3)NC(=O)OCc3ccccc3)ccc12` [S8, Cbz-(4-Pyr)Ala-hPhe-AMC] (Cbz-[4Pal]-[hPhe]-{AMC}), in data set [5], the Km amounted to 4.6 ± 0.5 µM; the kcat is 5.3 s⁻¹ and 5.3 ± 0.2 s⁻¹; the kcat rel was determined as 0.55.
As to `Cc1cc(=O)oc2cc(NC(=O)[C@H](Cc3ccccc3)NC(=O)[C@H](Cc3ccccc3)NC(=O)OCc3ccccc3)ccc12` [S9, Cbz-Phe-Phe-AMC] (Cbz-Phe-Phe-{AMC}), in data set [5], the Km came to 0.34 ± 0.06 µM, the kcat was found to be 0.26 ± 0.01 s⁻¹ and the kcat rel was found to be 0.03.
With `Cc1cc(=O)oc2cc(NC(=O)C(CCc3ccccc3)NC(=O)C(CCCN=C(N)N)NC(=O)OCc3ccccc3)ccc12` (stereo not drawn) [S10, Cbz-Arg-hPhe-AMC], in [5], the Km turned out to be 6.8 ± 0.4 µM; the kcat is 4.9 s⁻¹ and 4.9 ± 0.1 s⁻¹; the kcat rel is reported as 0.51.
`Cc1cc(=O)oc2cc(NC(=O)[C@H](Cc3ccccc3)NC(=O)[C@H](Cc3ccccc3)NC(=O)N3CCN(C)CC3)ccc12` [S11, NMePip-Phe-Phe-AMC]: in data set [5], the Km turned out to be 14 ± 4 µM, the kcat worked out at 2.8 ± 0.06 s⁻¹ and the kcat rel amounted to 0.29.
In the case of `Cc1cc(=O)oc2cc(NC(=O)C(C)NC(=O)C(Cc3ccccc3)NC(=O)OCc3ccccc3)ccc12` (stereo not drawn) [S12, Cbz-Phe-Ala-AMC], the kcat rel in [5] stood at 0.09. Further, in [9], the Km is 38 ± 2 µM and the kcat was 0.89 ± 0.06 s⁻¹.
In the case of `O=C(Cn1ccnc1[N+](=O)[O-])NCc1ccccc1` [benznidazole], in data set [10], the “LD50 (antichagasic potency)” value was 1.5 µM.
